“And” between values parts separate entries of the source, which are not always exact repeats. Identical values can stand only once.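 Exposure lasted 48 hours, with cells grown in 96-well plates and compounds tested at five concentrations. TGI marks complete inhibition of growth.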
Assays:
Experiment in all cases: growth of human tumour cells (NCI), 48 h
SNB-75 CNS = test system: SNB-75 CNS
UACC-257 melanoma = test system: UACC-257 melanoma
DU-145 prostate = test system: DU-145 prostate
SW-620 colon = test system: SW-620 colon
SF-539 CNS = test system: SF-539 CNS
U251 CNS = test system: U251 CNS
BT-549 breast = test system: BT-549 breast
NCI-H522 lung = test system: NCI-H522 lung
OVCAR-3 ovarian = test system: OVCAR-3 ovarian
HL-60(TB) leukemia = test system: HL-60(TB) leukemia
A549 NSCLC = test system: A549 NSCLC
K-562 leukemia = test system: K-562 leukemia
TK-10 renal = test system: TK-10 renal
MDA-MB-231 breast = test system: MDA-MB-231 breast
SK-MEL-2 melanoma = test system: SK-MEL-2 melanoma
M14 melanoma = test system: M14 melanoma
MDA-MB-435 = test system: MDA-MB-435
OVCAR-5 ovarian = test system: OVCAR-5 ovarian
HCT-15 colon = test system: HCT-15 colon
NCI-H226 lung = test system: NCI-H226 lung

| Structure (SMILES) | TGI (SNB-75 CNS) | TGI (UACC-257 melanoma) | TGI (DU-145 prostate) | TGI (SW-620 colon) | TGI (SF-539 CNS) | TGI (U251 CNS) | TGI (BT-549 breast) [µM] | TGI (NCI-H522 lung) | TGI (OVCAR-3 ovarian) | TGI (HL-60(TB) leukemia) | TGI (A549 NSCLC) | TGI (K-562 leukemia) | TGI (TK-10 renal) | TGI (MDA-MB-231 breast) | TGI (SK-MEL-2 melanoma) | TGI (M14 melanoma) | TGI (MDA-MB-435) | TGI (OVCAR-5 ovarian) | TGI (HCT-15 colon) | TGI (NCI-H226 lung) |
| --- | --- | --- | --- | --- | --- | --- | --- | --- | --- | --- | --- | --- | --- | --- | --- | --- | --- | --- | --- | --- |
| CN(C)CCCN1c2ccc([N+](=O)[O-])cc2CCc2cc([N+](=O)[O-])ccc21 | 24.8 µM and 29.3 µM | 28.7 µM and 27.4 µM | 30.2 µM and 33 µM | 34 µM and 33.2 µM | 30.6 µM and 37.8 µM | 30.2 µM and 27.6 µM | 29.2 | 32.3 µM and 34 µM | 30.2 µM and 30.5 µM | 31 µM and 30.1 µM | 32.7 µM and 31.5 µM | 59.5 µM and 31.2 µM | 23.3 µM and 24.3 µM | 30.3 µM and 22.6 µM | 36.9 µM and 32.4 µM | 31 µM and 28 µM | 26.5 µM and 29.5 µM | 28.6 µM and 28 µM | 33 µM and 33.6 µM | 32.8 µM and 33.4 µM |
| N=c1oc2ccccc2cc1C(=O)Nc1nccs1 | 99 µM | > 95.3 µM | > 79.4 µM | > 100 µM | – | > 100 µM | > 100 | 3.82 µM | 43.3 µM | 5.92 µM | > 100 µM | > 100 µM | > 50.7 µM | > 86.3 µM | 65.4 µM | > 100 µM | > 100 µM | > 100 µM | > 100 µM | > 92.3 µM |
| N#CCC1(c2ccc(Cl)cc2)NC(=O)c2ccccc21 (configuration not stated) | > 100 µM | > 100 µM | > 100 µM | > 100 µM | > 100 µM | > 100 µM | > 100 | > 100 µM | > 100 µM | > 100 µM | > 100 µM | > 100 µM | > 100 µM | > 100 µM | > 100 µM | > 100 µM | > 100 µM | > 100 µM | > 100 µM | > 100 µM |
| COc1ccc(C(=C2C(=O)N(c3ccccc3)C(=O)C2=C(C)C)c2ccc(OC)cc2)cc1 | > 43.6 µM | > 47.5 µM | > 58 µM | > 100 µM | > 24.2 µM | > 46.1 µM | > 39.2 | 15.7 µM | > 100 µM | 6.32 µM | > 62.9 µM | > 100 µM | > 47.5 µM | > 35.4 µM | > 42.3 µM | 13.5 µM | 4.9 µM | > 58.6 µM | > 32.5 µM | > 54 µM |
| COC(=O)[C@@H]1COC(C(C)(C)C)N1C(=O)C(c1ccccc1)c1ccccc1 (some centres not stated) | > 100 µM | > 100 µM | > 100 µM | > 100 µM | > 100 µM | > 100 µM | > 100 | > 100 µM | > 100 µM | 83.4 µM | > 100 µM | 70.4 µM | > 100 µM | 81.8 µM | > 100 µM | > 100 µM | > 100 µM | > 100 µM | > 100 µM | > 100 µM |
| O=C(O)c1nc2ccccc2nc1NCc1ccc(F)cc1 | > 100 µM | > 100 µM | > 100 µM | > 100 µM | > 100 µM | > 100 µM | > 100 | > 100 µM | > 100 µM | > 100 µM | > 100 µM | > 100 µM | > 100 µM | > 100 µM | > 100 µM | > 100 µM | > 100 µM | > 100 µM | 42.8 µM | > 100 µM |
| Cc1c/c(=N/NC(=O)c2ccncc2)n2nc(N)sc2n1 | > 100 µM | > 100 µM | > 100 µM | > 100 µM | > 100 µM | > 100 µM | > 100 | > 100 µM | > 100 µM | > 100 µM | > 100 µM | > 100 µM | – | > 100 µM | > 100 µM | > 100 µM | > 100 µM | > 100 µM | > 100 µM | > 100 µM |
| CC(=O)N(CCCCNC(=O)C(F)(F)F)CCCNC(=O)C(F)(F)F | > 100 µM | > 100 µM | > 100 µM | > 100 µM | > 100 µM | > 100 µM | > 100 | > 100 µM | > 100 µM | > 100 µM | > 100 µM | > 100 µM | > 100 µM | > 100 µM | > 100 µM | > 100 µM | > 100 µM | > 100 µM | > 100 µM | > 100 µM |
| C=C(CO)[C@H]1Oc2ccc(C(C)=O)cc2[C@@H]1O | > 100 µM | > 100 µM | > 100 µM | > 100 µM | > 100 µM | > 100 µM | > 100 | > 100 µM | > 100 µM | > 100 µM | > 100 µM | > 100 µM | > 100 µM | > 100 µM | > 100 µM | > 100 µM | > 100 µM | > 100 µM | > 100 µM | > 100 µM |
| CCCCCC(=Nc1n[nH]nc1C(N)=O)OCC | > 100 µM | > 100 µM | > 100 µM | > 100 µM | > 100 µM | > 100 µM | > 100 | > 100 µM | > 100 µM | > 100 µM | > 100 µM | > 100 µM | > 100 µM | > 100 µM | > 100 µM | > 100 µM | > 100 µM | > 100 µM | > 100 µM | > 100 µM |
| CC(=O)O[C@H]1C(=O)[C@@]2(C)C(C(OC(=O)c3ccccc3)[C@]3(O)CC(OC(=O)C(O)C(NC(=O)c4ccccc4)c4cccc(Cl)c4)C(C)=C1C3(C)C)[C@]1(OC(C)=O)CO[C@@H]1C[C@@H]2O (some centres not stated) | > 10 µM | > 10 µM | 9.16 µM | > 10 µM | 9.73 µM | > 10 µM | > 10 | > 10 µM | > 10 µM | 4.88 µM | > 10 µM | > 10 µM | > 10 µM | > 10 µM | > 10 µM | > 10 µM | 5.06 µM | > 10 µM | > 10 µM | > 10 µM |
| CCCCc1ccc(Nc2nc(Cl)c3ncn(C4CC(Oc5ccc(C)cc5)C(COc5ccc(C)cc5)O4)c3n2)cc1 (configuration not stated) | > 100 µM | > 100 µM | > 100 µM | > 100 µM | > 100 µM | – | > 100 | > 100 µM | > 100 µM | > 100 µM | > 100 µM | > 100 µM | > 100 µM | > 100 µM | > 100 µM | > 100 µM | > 100 µM | > 100 µM | > 100 µM | > 100 µM |
